Measurements taken from US20080300147A1, “Detection and Treatment of Fibrotic Disorders” (priority 2004, published 2008).

Tests used:
[1] = test system: leiomyoma smooth muscle cells (LSMC); assay: Realtime PCR mRNA expression in treated LSMC; format: cell-based, human
Procedure: Isolation and Culture of Leiomyoma and Myometrial Smooth Muscle Cells. […] Only untreated tissues were used for isolation of LSMC and MSMC. […] LSMC and MSMC were cultured in 6-well plates at an approximate density of 10^6 cells/well in DMEM-supplemented media containing 10% FBS. After reaching visual confluence, the cells were washed in serum-free media and incubated for 24 hrs under serum-free, phenol red-free condition (Chegini, N et al. Mol Hum Reprod, 2002, 8:1071-8).
(§1) Quantitative RealTime PCR. Realtime PCR was utilized for verification of 10 differentially expressed and regulated genes identified in leiomyoma and myometrium as well as LSMC and MSMC from untreated and GnRHa-treated cohorts. The selection of these genes was based not only on their expression values (up or downregulation), but classification and biological functions important to leiomyoma growth and regression, regulation by ovarian steroids, GnRHa and TGF-β. They are IL-11, CITED2, Nur77, EGR3, TGIF, TIEG, p27, p57, GAS-1 and GPRK5 representing cytokines, transcription factors, cell cycle regulators and signal transduction.
Determination of TGF-β1 on global gene expression in LSMC and MSMC. All the materials utilized for this study including isolation of leiomyoma and myometrial cells are identical to those described in detail above. To determine the effect of TGF-β1 on global gene expression in LSMC and MSMC, the cells were cultured in 6-well plates at approximate density of 10^6 cells/well in DMEM-supplemented media containing 10% FBS. […] The cells were then treated with 2.5 ng/ml of TGF-β1 (R & D System, Minneapolis, […].) for 2, 6 and 12 hours. […] The cells were washed and then treated with TGF-β1 (2.5 ng/ml) for 2 hours. Parallel experiments using untreated cells were used as controls including an additional control for TGF-β type II receptor antisense and sense experiments.
Total cellular RNA was isolated from LSMC- and MSMC-treated and untreated controls and subjected to microarray analysis. To maintain standard and allow for comparative analysis, the GeneChips used in this study were utilized, simultaneously processed and their gene expression values were subjected to global normalization and transformation. Following these unsupervised assessments the coefficient of variation was calculated for each probe set across all the chips used in this study, and the selected gene expression values of this study were independently subjected to supervised learning including R programming analysis and ANOVA with false discovery rate selected at p<0.001 (Moustakas, A. Immunol Lett, 2002, 82:85-91; Verrecchia, F. et al. J Biol Chem, 2001, 276:17058-17062). The genes identified in these cohorts were analyzed for functional annotation and visualized using Database for Annotation, Visualization, and Integrated Discovery (DAVID) software with integrated GoCharts. Following the analysis, we selected 12 of the differentially expressed and regulated genes, including 10 identified and validated in leiomyoma and myometrium from untreated and GnRHa-treated cohorts, as well as LSMC and MSMC treated in vitro with GnRHa, for validation in response to TGF-β-time dependent action using Realtime PCR. They include IL-11, EGR3, CITED2, TIEG, TGIF, Nur77, p27, p57, GAS-1 and GPRK5. In addition, the expression of Runx1 and Runx2, transcription factors that interact with TGF-β receptor signaling pathways (Zavadil, J. et al. Proc Natl Acad Sci USA, 2001, 98:6686-6691), was validated in LSMC and MSMC as well as in leiomyoma and myometrium from GnRHa-treated and untreated cohorts. Detail description of the materials and methods for Realtime PCR as well as data analysis is provided in Chegini, N. et al. J Soc Gynecol Investig, 2003, 10:161-71.
Isolation and Culture of Leiomyoma and Myometrial Smooth Muscle Cells. Leiomyoma and myometrial smooth muscle cells (LSMC and MSMC) were isolated and cultured as previously described (Chegini, N. et al. Mol Hum Reprod, 2002, 8:1071-1078). […]

leiomyoma = assay: Realtime PCR mRNA expression in leiomyoma, GnRHa therapy vs untreated; format: in vivo, human
Excerpt: Tissues. Portions of leiomyoma and matched myometrium were collected from premenopausal women (N=6) who were scheduled to undergo hysterectomy for indications related to symptomatic leiomyomas. Three of the patients received GnRHa therapy for three months prior to surgery. […] To maintain a standard, all leiomyomas selected for this study were between 2 to 3 cm in diameter. […] The tissues were collected at the University of Florida affiliated Shands Hospital with prior approval obtained from the Institutional Review Board.
as §1
(§2) Portions of leiomyoma and matched myometrium were collected from premenopausal women (N=27) who were scheduled to undergo hysterectomy for symptomatic uterine leiomyomas at the University of Florida affiliated Shands Hospital. Of these patients seven received GnRHa therapy for a period of three months prior to surgery. […] To maintain a standard, leiomyomas used in this study were 2 to 3 cm in diameter. Prior approval was obtained from the University of Florida Institutional Review Board for the experimental protocol of this study.
as §2, with “patients,” for “patients”
Realtime PCR. Briefly, total RNA was isolated from leiomyoma and matched myometrium using Trizol Reagent (INVITROGEN, Carlsbad, Calif.) and complimentary DNA was generated from 2 μg of total RNA using Taqman reverse transcription reagent. The newly synthesized cDNA was used for PCR performed in 96-well optical reaction plates with cDNA equivalent to 100 ng RNA in a volume of 50 μl reaction containing 1× Taqman Universal Master Mix, optimized concentrations of FAM-labeled probe and specific forward and reverse primer for FMOD selected from Assay on Demand (APPLIED BIOSYSTEMS). Controls included RNA subjected to RT-PCR without reverse transcriptase and PCR with water replacing cDNA.

[2] = GnRHa 0.1 μM, 2, 6 and 12 hours
[3] = GnRHa therapy three months vs untreated

## CCNC(=O)[C@@H]1CCCN1C(=O)[C@H](CCCNC(=N)N)NC(=O)[C@H](CC(C)C)NC(=O)[C@@H](CC(C)C)NC(=O)[C@H](Cc1ccc(O)cc1)NC(=O)[C@H](CO)NC(=O)[C@H](Cc1c[nH]c2ccccc12)NC(=O)[C@H](Cc1c[nH]cn1)NC(=O)[C@@H]1CCC(=O)N1 [GnRHa, leuprolide acetate]
[1]; [2]
  CITED2 expression in LSMC: inhibiting
  GPRK5 expression in LSMC: inhibits
[1]; GnRHa 0.1 μM, 2, 6 and 12 hrs
  CCN2 mRNA expression in LSMC: inhibited
  CCN3 mRNA expression in LSMC: inhibited
  CCN4 mRNA expression in LSMC: inhibited
  S100A4 mRNA expression in LSMC: inhibited
  fibulin-1C mRNA expression in LSMC: inhibited
[1]; GnRHa 0.1 μM, 2 and 6 hrs
  FMOD expression in LSMC: no significant effect
[1]; GnRHa 0.1 μM, 12 hrs
  FMOD expression in LSMC: inhibited
[1]; GnRHa 0.1 μM, within 2 to 6 hours, control levels after 12 hours
  IL-11 expression in LSMC: increased
[1]; GnRHa 0.1 μM, subsequently fell below untreated levels
  Nur77 expression in LSMC: rapid induction
leiomyoma; GnRHa therapy three months (N=7) vs untreated
  FMOD mRNA expression in leiomyoma: significantly reduced
leiomyoma; [3]
  CCN2 mRNA expression in leiomyoma: alters
  CCN3 mRNA expression in leiomyoma: without affecting
  CCN4 mRNA expression in leiomyoma: without affecting
  fibulin-1C mRNA expression in leiomyoma: without affecting
leiomyoma; GnRHa therapy vs untreated
  CITED2 expression in leiomyoma: increased
  GPRK5 expression in leiomyoma: inhibits
  IL-11 expression in leiomyoma: suppressed
  Nur77 expression in leiomyoma: significant elevation
